Laboratory results: ChEMBL document CHEMBL4507329, “Data for DCP probe BTZO-1” (2021)

Experiments:
[1] = molecular target: Serine/threonine-protein kinase ULK3 (Homo sapiens) (UniProt Q6PHR2); conditions: Compound concentration 1000.0 nM
[2] = test system: Epidermal growth factor receptor (Homo sapiens), P00533 [T790M]; conditions: Compound concentration 1000.0 nM
[3] = molecular target: Receptor-type tyrosine-protein kinase FLT3 (Homo sapiens) (UniProt P36888); conditions: Compound concentration 1000.0 nM
[4] = molecular target: Mitogen-activated protein kinase 10 (Homo sapiens) (UniProt P53779); conditions: Compound concentration 1000.0 nM
[5] = molecular target: 3-phosphoinositide-dependent protein kinase 1 (Homo sapiens) (UniProt O15530); conditions: Compound concentration 1000.0 nM
[6] = molecular target: Ribosomal protein S6 kinase alpha-3 (Homo sapiens) (UniProt P51812); conditions: Compound concentration 1000.0 nM
[7] = molecular target: Inhibitor of nuclear factor kappa-B kinase subunit alpha (Homo sapiens) (UniProt O15111); conditions: Compound concentration 1000.0 nM
[8] = molecular target: Aurora kinase C (Homo sapiens) (UniProt Q9UQB9); conditions: Compound concentration 1000.0 nM
[9] = molecular target: Calcium/calmodulin-dependent protein kinase type 1 (Homo sapiens) (UniProt Q14012); conditions: Compound concentration 1000.0 nM
[10] = molecular target: Mitogen-activated protein kinase 3 (Homo sapiens) (UniProt P27361); conditions: Compound concentration 1000.0 nM
[11] = molecular target: MAP/microtubule affinity-regulating kinase 4 (Homo sapiens) (UniProt Q96L34); conditions: Compound concentration 1000.0 nM
[12] = molecular target: Protein kinase C theta type (Homo sapiens) (UniProt Q04759); conditions: Compound concentration 1000.0 nM
[13] = molecular target: Serine/threonine-protein kinase Nek11 (Homo sapiens) (UniProt Q8NG66); conditions: Compound concentration 1000.0 nM
[14] = test system: Tyrosine-protein kinase ABL1 (Homo sapiens), P00519 [F317I]; conditions: Compound concentration 1000.0 nM
[15] = molecular target: Alpha-1B adrenergic receptor (Homo sapiens) (UniProt P35368); conditions: Compound concentration 10.0 uM
[16] = molecular target: Dual specificity protein kinase CLK4 (Homo sapiens) (UniProt Q9HAZ1); conditions: Compound concentration 1000.0 nM
[17] = molecular target: Non-receptor tyrosine-protein kinase TYK2 (Homo sapiens) (UniProt P29597); conditions: Compound concentration 1000.0 nM
[18] = molecular target: Calcium/calmodulin-dependent protein kinase type 1B (Homo sapiens) (UniProt Q6P2M8); conditions: Compound concentration 1000.0 nM
[19] = test system: Epidermal growth factor receptor (Homo sapiens), P00533 [G719C]; conditions: Compound concentration 1000.0 nM
[20] = test system: Tyrosine-protein kinase ABL1 (Homo sapiens), P00519 [E255K]; conditions: Compound concentration 1000.0 nM
[21] = molecular target: Serine/threonine-protein kinase PAK 1 (Homo sapiens) (UniProt Q13153); conditions: Compound concentration 1000.0 nM
[22] = molecular target: RAC-beta serine/threonine-protein kinase (Homo sapiens) (UniProt P31751); conditions: Compound concentration 1000.0 nM
[23] = molecular target: Death-associated protein kinase 2 (Homo sapiens) (UniProt Q9UIK4); conditions: Compound concentration 1000.0 nM
[24] = molecular target: Inhibitor of nuclear factor kappa-B kinase subunit epsilon (Homo sapiens) (UniProt Q14164); conditions: Compound concentration 1000.0 nM
[25] = molecular target: Homeodomain-interacting protein kinase 4 (Homo sapiens) (UniProt Q8NE63); conditions: Compound concentration 1000.0 nM
[26] = molecular target: Atypical kinase COQ8B, mitochondrial (Homo sapiens) (UniProt Q96D53); conditions: Compound concentration 1000.0 nM
[27] = test system: Receptor-type tyrosine-protein kinase FLT3 (Homo sapiens), P36888 [N841I]; conditions: Compound concentration 1000.0 nM
[28] = molecular target: Ephrin type-A receptor 7 (Homo sapiens) (UniProt Q15375); conditions: Compound concentration 1000.0 nM
[29] = molecular target: Receptor tyrosine-protein kinase erbB-4 (Homo sapiens) (UniProt Q15303); conditions: Compound concentration 1000.0 nM
[30] = molecular target: Cyclin-dependent kinase 14 (Homo sapiens) (UniProt O94921); conditions: Compound concentration 1000.0 nM
[31] = molecular target: SRSF protein kinase 3 (Homo sapiens) (UniProt Q9UPE1); conditions: Compound concentration 1000.0 nM
[32] = molecular target: Receptor-type tyrosine-protein kinase FLT3 (Homo sapiens) (UniProt P36888); conditions: Compound concentration 1000.0 nM; remark: listed apart in the source
[33] = test system: Serine/threonine-protein kinase B-raf (Homo sapiens), P15056 [V600E]; conditions: Compound concentration 1000.0 nM
[34] = molecular target: Dual specificity protein kinase CLK3 (Homo sapiens) (UniProt P49761); conditions: Compound concentration 1000.0 nM
[35] = molecular target: Serine/threonine-protein kinase 36 (Homo sapiens) (UniProt Q9NRP7); conditions: Compound concentration 1000.0 nM
[36] = molecular target: Mitogen-activated protein kinase kinase kinase kinase 2 (Homo sapiens) (UniProt Q12851); conditions: Compound concentration 1000.0 nM
[37] = molecular target: Platelet-derived growth factor receptor alpha (Homo sapiens) (UniProt P16234); conditions: Compound concentration 1000.0 nM
[38] = molecular target: Cyclin-dependent kinase 2 homolog (Plasmodium falciparum (isolate 3D7)) (UniProt P61075); conditions: Compound concentration 1000.0 nM
[39] = molecular target: Ephrin type-B receptor 2 (Homo sapiens) (UniProt P29323); conditions: Compound concentration 1000.0 nM
[40] = molecular target: Cyclin-dependent kinase 8 (Homo sapiens, UniProt P49336); conditions: Compound concentration 1000.0 nM
[41] = molecular target: Serine/threonine-protein kinase Nek2 (Homo sapiens) (UniProt P51955); conditions: Compound concentration 1000.0 nM
[42] = molecular target: Myosin-IIIa (Homo sapiens) (UniProt Q8NEV4); conditions: Compound concentration 1000.0 nM
[43] = molecular target: Sodium-dependent noradrenaline transporter (Homo sapiens) (UniProt P23975); conditions: Compound concentration 10.0 uM
[44] = molecular target: Tyrosine-protein kinase Yes (Homo sapiens) (UniProt P07947); conditions: Compound concentration 1000.0 nM
[45] = molecular target: Beta-3 adrenergic receptor (Homo sapiens) (UniProt P13945); conditions: Compound concentration 10.0 uM
Sequence of Beta-3 adrenergic receptor (Homo sapiens) (P13945 whole entry, looked up): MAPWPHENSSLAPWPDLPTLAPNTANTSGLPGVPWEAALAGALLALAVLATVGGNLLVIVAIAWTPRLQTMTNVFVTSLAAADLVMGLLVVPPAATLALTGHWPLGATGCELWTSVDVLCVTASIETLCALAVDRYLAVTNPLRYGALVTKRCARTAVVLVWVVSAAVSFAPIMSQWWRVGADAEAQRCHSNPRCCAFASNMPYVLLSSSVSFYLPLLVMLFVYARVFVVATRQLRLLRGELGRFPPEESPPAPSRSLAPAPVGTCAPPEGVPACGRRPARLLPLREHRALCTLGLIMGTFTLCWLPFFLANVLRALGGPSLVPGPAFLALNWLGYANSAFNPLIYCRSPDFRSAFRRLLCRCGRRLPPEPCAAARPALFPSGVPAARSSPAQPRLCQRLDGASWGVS

Sequence of Receptor tyrosine-protein kinase erbB-4 (Homo sapiens) (Q15303 whole entry): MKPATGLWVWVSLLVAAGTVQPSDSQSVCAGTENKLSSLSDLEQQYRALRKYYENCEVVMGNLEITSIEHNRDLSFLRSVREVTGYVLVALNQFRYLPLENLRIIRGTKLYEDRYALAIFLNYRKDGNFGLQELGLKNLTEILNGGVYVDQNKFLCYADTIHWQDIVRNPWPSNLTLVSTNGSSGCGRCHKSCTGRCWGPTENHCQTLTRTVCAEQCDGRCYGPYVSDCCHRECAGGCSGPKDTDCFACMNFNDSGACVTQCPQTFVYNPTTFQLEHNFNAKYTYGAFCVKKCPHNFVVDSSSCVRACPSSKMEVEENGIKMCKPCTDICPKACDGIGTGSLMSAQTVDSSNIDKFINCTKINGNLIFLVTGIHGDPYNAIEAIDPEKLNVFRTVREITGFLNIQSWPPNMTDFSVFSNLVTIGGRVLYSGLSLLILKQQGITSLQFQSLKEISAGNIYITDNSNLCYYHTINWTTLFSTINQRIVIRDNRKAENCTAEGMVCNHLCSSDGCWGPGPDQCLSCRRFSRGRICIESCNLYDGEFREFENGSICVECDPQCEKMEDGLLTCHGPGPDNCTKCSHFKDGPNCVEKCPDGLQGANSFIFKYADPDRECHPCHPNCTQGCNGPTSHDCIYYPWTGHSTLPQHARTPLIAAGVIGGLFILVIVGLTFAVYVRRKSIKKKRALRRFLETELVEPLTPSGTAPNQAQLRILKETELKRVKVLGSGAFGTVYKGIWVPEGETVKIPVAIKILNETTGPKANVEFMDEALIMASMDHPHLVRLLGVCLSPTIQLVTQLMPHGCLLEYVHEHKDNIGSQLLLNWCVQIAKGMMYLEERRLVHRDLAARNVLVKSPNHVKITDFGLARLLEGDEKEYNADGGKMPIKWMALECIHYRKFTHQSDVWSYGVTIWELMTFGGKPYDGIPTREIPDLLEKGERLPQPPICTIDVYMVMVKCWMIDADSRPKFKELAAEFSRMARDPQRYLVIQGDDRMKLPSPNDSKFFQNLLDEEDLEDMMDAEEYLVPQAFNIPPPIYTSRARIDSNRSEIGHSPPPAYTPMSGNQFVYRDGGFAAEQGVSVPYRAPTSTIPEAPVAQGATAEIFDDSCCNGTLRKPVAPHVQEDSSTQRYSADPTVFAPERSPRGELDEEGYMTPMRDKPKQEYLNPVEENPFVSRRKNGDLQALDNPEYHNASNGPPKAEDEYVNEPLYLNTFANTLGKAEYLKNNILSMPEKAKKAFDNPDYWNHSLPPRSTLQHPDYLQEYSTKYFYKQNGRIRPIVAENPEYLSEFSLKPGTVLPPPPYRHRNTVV
Sequence of Protein kinase C theta type (Homo sapiens) (Q04759 whole entry, looked up): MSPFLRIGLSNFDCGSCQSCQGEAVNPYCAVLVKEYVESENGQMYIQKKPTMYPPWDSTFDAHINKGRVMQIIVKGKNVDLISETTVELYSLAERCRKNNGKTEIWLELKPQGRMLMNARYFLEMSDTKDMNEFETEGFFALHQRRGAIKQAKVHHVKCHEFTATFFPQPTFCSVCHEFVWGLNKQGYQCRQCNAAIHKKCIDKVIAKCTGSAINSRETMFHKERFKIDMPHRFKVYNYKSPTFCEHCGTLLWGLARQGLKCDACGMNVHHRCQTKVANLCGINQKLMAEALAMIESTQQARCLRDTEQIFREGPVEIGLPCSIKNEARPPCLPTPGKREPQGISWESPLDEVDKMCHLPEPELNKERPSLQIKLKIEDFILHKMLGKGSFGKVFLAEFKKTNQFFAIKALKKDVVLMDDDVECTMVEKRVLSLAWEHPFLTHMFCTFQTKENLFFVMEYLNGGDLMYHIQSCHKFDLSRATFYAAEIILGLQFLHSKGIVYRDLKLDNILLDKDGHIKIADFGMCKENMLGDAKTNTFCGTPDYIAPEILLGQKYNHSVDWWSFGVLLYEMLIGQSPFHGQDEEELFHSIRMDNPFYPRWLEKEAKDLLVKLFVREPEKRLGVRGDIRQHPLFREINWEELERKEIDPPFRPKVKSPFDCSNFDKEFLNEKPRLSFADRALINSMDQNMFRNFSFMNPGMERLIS
Sequence of Cyclin-dependent kinase 8 (P49336 whole entry): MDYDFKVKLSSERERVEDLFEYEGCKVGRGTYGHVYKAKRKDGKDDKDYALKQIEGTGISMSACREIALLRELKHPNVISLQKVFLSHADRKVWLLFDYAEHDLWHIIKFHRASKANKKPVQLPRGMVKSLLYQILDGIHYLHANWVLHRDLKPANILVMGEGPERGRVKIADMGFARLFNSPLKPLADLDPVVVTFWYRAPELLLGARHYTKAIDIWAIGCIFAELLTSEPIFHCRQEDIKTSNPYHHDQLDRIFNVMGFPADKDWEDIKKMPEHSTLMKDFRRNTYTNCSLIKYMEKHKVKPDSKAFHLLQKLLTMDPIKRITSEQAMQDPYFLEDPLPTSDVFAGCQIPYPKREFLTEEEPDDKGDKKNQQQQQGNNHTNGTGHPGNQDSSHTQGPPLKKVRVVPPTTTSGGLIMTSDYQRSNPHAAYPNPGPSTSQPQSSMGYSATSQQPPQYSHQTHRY
Sequence of Homeodomain-interacting protein kinase 4 (Homo sapiens) (Q8NE63 whole entry): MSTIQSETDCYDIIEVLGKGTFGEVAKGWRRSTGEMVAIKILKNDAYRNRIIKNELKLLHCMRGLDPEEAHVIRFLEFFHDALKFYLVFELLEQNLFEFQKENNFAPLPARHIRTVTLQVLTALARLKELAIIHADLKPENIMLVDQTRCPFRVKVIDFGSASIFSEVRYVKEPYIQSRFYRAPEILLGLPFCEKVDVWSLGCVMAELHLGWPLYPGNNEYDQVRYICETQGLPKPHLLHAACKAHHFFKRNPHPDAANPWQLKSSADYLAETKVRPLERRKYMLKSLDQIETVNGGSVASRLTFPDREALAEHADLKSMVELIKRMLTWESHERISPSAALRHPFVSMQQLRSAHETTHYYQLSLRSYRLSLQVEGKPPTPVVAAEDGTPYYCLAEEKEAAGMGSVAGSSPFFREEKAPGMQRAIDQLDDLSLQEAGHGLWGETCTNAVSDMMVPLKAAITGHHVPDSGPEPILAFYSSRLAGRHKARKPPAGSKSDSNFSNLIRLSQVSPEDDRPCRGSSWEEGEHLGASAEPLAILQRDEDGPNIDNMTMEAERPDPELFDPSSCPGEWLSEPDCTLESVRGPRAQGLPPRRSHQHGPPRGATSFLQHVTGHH
Sequence of Mitogen-activated protein kinase 3 (Homo sapiens) (P27361 whole entry): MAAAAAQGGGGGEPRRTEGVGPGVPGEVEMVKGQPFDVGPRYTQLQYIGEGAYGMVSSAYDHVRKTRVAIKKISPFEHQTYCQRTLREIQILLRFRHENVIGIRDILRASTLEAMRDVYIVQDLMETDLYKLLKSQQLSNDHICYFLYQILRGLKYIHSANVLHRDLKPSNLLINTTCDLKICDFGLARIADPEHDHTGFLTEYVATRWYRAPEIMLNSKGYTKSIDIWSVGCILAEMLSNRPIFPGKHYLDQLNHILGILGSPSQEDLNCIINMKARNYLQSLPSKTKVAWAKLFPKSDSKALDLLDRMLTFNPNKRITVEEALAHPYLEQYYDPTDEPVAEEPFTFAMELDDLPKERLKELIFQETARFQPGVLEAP
Sequence of Tyrosine-protein kinase ABL1 (Homo sapiens), P00519 [F317I] (P00519 whole entry F317I): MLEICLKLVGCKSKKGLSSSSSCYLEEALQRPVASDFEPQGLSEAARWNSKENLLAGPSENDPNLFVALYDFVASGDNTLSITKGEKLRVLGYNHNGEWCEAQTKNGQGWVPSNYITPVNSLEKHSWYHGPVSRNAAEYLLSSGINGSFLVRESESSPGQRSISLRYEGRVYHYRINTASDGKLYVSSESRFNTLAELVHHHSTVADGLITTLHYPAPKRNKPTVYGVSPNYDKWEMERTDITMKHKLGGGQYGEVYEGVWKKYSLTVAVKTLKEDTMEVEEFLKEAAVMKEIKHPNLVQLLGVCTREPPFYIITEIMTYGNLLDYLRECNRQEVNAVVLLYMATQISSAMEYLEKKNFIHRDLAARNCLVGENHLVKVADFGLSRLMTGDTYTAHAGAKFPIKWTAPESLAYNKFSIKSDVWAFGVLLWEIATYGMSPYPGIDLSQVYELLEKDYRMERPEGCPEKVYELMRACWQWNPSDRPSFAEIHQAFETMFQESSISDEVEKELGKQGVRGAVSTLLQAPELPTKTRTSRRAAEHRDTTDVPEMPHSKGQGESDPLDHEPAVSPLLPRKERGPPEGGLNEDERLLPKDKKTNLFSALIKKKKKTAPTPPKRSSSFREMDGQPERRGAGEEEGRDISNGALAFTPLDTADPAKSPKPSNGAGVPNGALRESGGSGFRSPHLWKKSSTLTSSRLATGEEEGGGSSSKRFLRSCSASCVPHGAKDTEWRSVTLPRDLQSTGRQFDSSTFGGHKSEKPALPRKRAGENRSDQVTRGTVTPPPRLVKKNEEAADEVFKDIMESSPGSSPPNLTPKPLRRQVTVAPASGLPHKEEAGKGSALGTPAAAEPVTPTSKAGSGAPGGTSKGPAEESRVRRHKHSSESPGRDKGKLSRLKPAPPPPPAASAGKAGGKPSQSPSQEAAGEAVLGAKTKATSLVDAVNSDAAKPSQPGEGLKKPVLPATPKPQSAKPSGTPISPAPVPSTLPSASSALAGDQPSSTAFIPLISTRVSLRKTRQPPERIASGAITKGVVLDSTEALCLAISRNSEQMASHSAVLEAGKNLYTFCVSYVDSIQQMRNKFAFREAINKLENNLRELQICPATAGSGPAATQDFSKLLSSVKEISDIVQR
Sequence of Tyrosine-protein kinase ABL1 (Homo sapiens), P00519 [E255K] (P00519 whole entry E255K): as the sequence (P00519 whole entry F317I) above, with E255K, I317F counted along it

O=C1NC(c2ccccn2)Sc2ccccc21 (stereo not given) [BTZO-4]
residual activity [1]: 100%
residual activity [2]: 96%
residual activity [3]: 92%
residual activity [4]: 100%
residual activity [5]: 97%
residual activity [6]: 72%
residual activity [7]: 100%
residual activity [8]: 90%
residual activity [9]: 91%
residual activity [10]: 74%
residual activity [11]: 100%
residual activity [12]: 76%
residual activity [13]: 95%
residual activity [14]: 90%
inhibition [15]: -5.82%
residual activity [16]: 97%
residual activity [17]: 88%
residual activity [18]: 71%
residual activity [19]: 87%
residual activity [20]: 77%
residual activity [21]: 96%
residual activity [22]: 92%
residual activity [23]: 79%
residual activity [24]: 94%
residual activity [25]: 70%
residual activity [26]: 67%
residual activity [27]: 60%
residual activity [28]: 72%
residual activity [29]: 77%
residual activity [30]: 100%
residual activity [31]: 100%
residual activity [32]: 77%
residual activity [33]: 94%
residual activity [34]: 97%
residual activity [35]: 79%
residual activity [36]: 83%
residual activity [37]: 76%
residual activity [38]: 100%
residual activity [39]: 71%
residual activity [40]: 78%
residual activity [41]: 100%
residual activity [42]: 85%
inhibition [43]: 28.7%
residual activity [44]: 100%
inhibition [45]: 32.4%

O=c1nc(-c2ccccn2)sc2ccccc12 [BTZO-1]
residual activity [1]: 100%
residual activity [2]: 100%
residual activity [3]: 98%
residual activity [4]: 100%
residual activity [5]: 100%
residual activity [6]: 71%
residual activity [7]: 100%
residual activity [8]: 97%
residual activity [9]: 92%
residual activity [10]: 80%
residual activity [11]: 100%
residual activity [12]: 90%
residual activity [13]: 100%
residual activity [14]: 100%
inhibition [15]: 9.84%
residual activity [16]: 90%
residual activity [17]: 100%
residual activity [18]: 56%
residual activity [19]: 77%
residual activity [20]: 100%
residual activity [21]: 94%
residual activity [22]: 100%
residual activity [23]: 86%
residual activity [24]: 100%
residual activity [25]: 85%
residual activity [26]: 60%
residual activity [27]: 74%
residual activity [28]: 80%
residual activity [29]: 96%
residual activity [30]: 100%
residual activity [31]: 100%
residual activity [32]: 93%
residual activity [33]: 100%
residual activity [34]: 96%
residual activity [35]: 82%
residual activity [36]: 100%
residual activity [37]: 89%
residual activity [38]: 100%
residual activity [39]: 100%
residual activity [40]: 36%
residual activity [41]: 84%
residual activity [42]: 92%
inhibition [43]: -0.363%
residual activity [44]: 100%
inhibition [45]: 20.1%
